Experimental data: patent US20240101749A1, “RESIN COMPOSITION” (4D MEDICINE LIMITED, priority 2021, published 2024)

Legend:
[1] = UV-vis absorption spectrum in acetone; type: physicochemical
Description: Referring now to FIG. 1B, there is shown a synthetic pathway to Reactive Diluent 1, 2, and 3. […] Reactive diluents of the invention are non-white coloured.
The spectra 2a and 2b of Reactive Diluent 3 were recorded in spectroscopy grade acetone, diluted from 1M stock solutions down to 10 μM using serial dilutions. Absorption behaviour was examined from 200 nm to 800 nm, at 1 nm increments, using a ThermoFisher 350 UV-vis spectrophotometer (ThermoFisher Scientific, UK). Absorption maxima at 365, 405, 455, and 500 nm were recorded for comparison.
(§1) Referring also to FIG. 3, there is shown a series of graphs illustrating the absorption behaviour of the resin components in spectroscopy grade acetone, diluted from 1 M stock solutions down to 10 μM using serial dilutions. Absorption behaviour was examined from 200 nm to 800 nm, at 1 nm increments, with absorption maxima quantified at 365, 405, 455, and 500 nm, as indicated in the box in each graph.

[2] = Concentration at which Reactive Diluent 3 acts as a photoinhibitor (absorption vs concentration, inflection point); type: physicochemical
Description: as §1
This was used to determine the concentration at which Reactive Diluent 3 would act as a photoinhibitor for wavelengths of interest. At 365 nm, the inflection point of the logarithmic plot of the linear fit was located at ca 0.015M; 405 nm inflection point was located at 0.0131M; 450 nm inflection point was found at 0.099M; 500 nm inflection point was located at 0.1312M.

concentration needed in a resin composition to function as a photoinhibitor [2]	inflection point of the logarithmic plot of the linear fit ([2]; 365 nm, acetone)	inflection point ([2]; 405 nm, acetone)	inflection point ([2]; 450 nm, acetone)	inflection point ([2]; 500 nm, acetone)	SMILES	absorption maximum (λmax) [1]
–	–	–	–	–	C=CCOC(=O)NCC1(C)CC(NC(=O)OCC=C)CC(C)(C)C1 (centres unmarked) [Reactive Diluent 1]	do not exhibit an absorption maximum (λmax) of between 350 and 520 nm
–	–	–	–	–	C=CCNC(=O)NCC1(C)CC(NC(=O)NCC=C)CC(C)(C)C1 (centres unmarked) [Reactive Diluent 2]	do not exhibit an absorption maximum (λmax) of between 350 and 520 nm
at least 0.015 M	~0.015 M	0.0131 M	0.099 M	0.1312 M	C=CCN1C(=O)CC(=O)N(CC2(C)CC(N3C(=O)CC(=O)N(CC=C)C3=O)CC(C)(C)C2)C1=O (centres unmarked) [Reactive Diluent 3]	ca. 450 nm
